# Source: patent US9867376B2, “Herbicidal compositions comprising N-tetrazol-5-yl)- or N-(triazol-5-yl)arylcarboxamides” (priority 2012, dated 2018)
# Assays:
# Type in all cases: in vivo
# [1] = tested on: Portulaca oleracea; experiment: Field trial, post-emergence, visual scoring; conditions: Table 5-16, field, alone, 50 g of a.i./ha
# Method: (§1) The tests were conducted outdoors (plot trials, 10 m^2 per plot, 2 repetitions, spray application with 200-300 liters of water per hectare). Crops and broad-leaved weeds/weed grasses were sown under customary field conditions. In addition, a natural weed flora also appeared. Application was by the post-emergence method. The application rates of the herbicidally active compounds applied on their own or in combinations are likewise shown in the tables below. Evaluations were by visual scoring (using a 0-100% scale) after application by comparison of treated and untreated test variants.
# (§2) The abbreviations denote: • a.i.=active ingredient • E^C=expected value according to Colby (E^C=A+B−A×B100) • Δ=difference (%) of the measured value to the expected value (%) (measured value minus expected value)
# (§3) Evaluation: • measured value E is greater than E^C:→synergism (+Δ) • measured value E equals E^C:→additive effect • measured value E is smaller than E^C:→antagonism (−Δ)
# [2] = tested on: Sida spinosa; experiment: Field trial, post-emergence, visual scoring; conditions: alone
# Method: as §1, §2, §3
# [3] = tested on: Cassia obtusifolia; experiment: Field trial, post-emergence, visual scoring; conditions: alone
# Method: as §1, §2, §3
# [4] = tested on: Digitaria sanguinalis; experiment: Greenhouse trial, post-emergence, visual herbicidal effect
# Method: (§4) The weed seeds were sown in pots (diameter 8 cm) with sandy loam soil and germinated under optimum conditions. The herbides were applied by the post-emergence method onto the pots with the cultures, at a spray volume of 300 I/ha. The herbicides were applied on their own and in combination. The trial was conducted in a greenhouse under optimum growth conditions. The herbicidal effects were assessed visually by comparison of untreated and treated plants. The percentages mean: 0%=no effects, 100%=the plants die off completely). The percentages are used to calculate interactions between individual treatments and combination treatment according to S. R. Colby, Weeds 15, pages 20 to 22 (1967).
# as §2, §3
# [5] = tested on: Echinochloa crus-galli; experiment: as above
# Method: as §4, §2, §3
# [6] = tested on: Brachiaria platyphylla; experiment: as above
# Method: as §4, §2, §3
# [7] = tested on: Setaria viridis; experiment: as above; conditions: alone
# Method: as §4, §2, §3
# [8] = tested on: Setaria viridis; experiment: Field trial, post-emergence, visual scoring; conditions: alone
# Method: as §1, §2, §3
# [9] = tested on: Galium aparine; experiment: Field trial, post-emergence, visual scoring; conditions: alone
# Method: as §1, §2, §3
# [10] = tested on: Phalaris minor; experiment: Greenhouse trial, post-emergence, visual herbicidal effect; conditions: Table 5-03, greenhouse, alone, 2 g of a.i./ha
# Method: as §4, §2, §3
# [11] = tested on: Viola tricolor; experiment: as above; conditions: alone
# Method: as §4, §2, §3
# [12] = tested on: Avena fatua; experiment: as above; conditions: alone
# Method: as §4, §2, §3
# [13] = tested on: Centaurea cyanis; experiment: as above; conditions: alone
# Method: as §4, §2, §3
# [14] = tested on: Papaver rhoeas; experiment: as above; conditions: alone
# Method: as §4, §2, §3
# [15] = tested on: broad-leaved weeds/weed grasses; experiment: Field trial, post-emergence, visual scoring (species not listed above); conditions: dosage 25 g of a.i./ha
# Method: as §1, §2, §3
# [16] = tested on: Lolium multiflorum; experiment: Field trial, post-emergence, visual scoring; conditions: alone
# Method: as §1, §2, §3
# [17] = tested on: Polygonum convolvulus; experiment: Greenhouse trial, post-emergence, visual herbicidal effect; conditions: alone
# Method: as §4, §2, §3
# [18] = tested on: Veronica hederifolia; experiment: Field trial, post-emergence, visual scoring; conditions: alone, 25 g of a.i./ha
# Method: as §1, §2, §3
# [19] = tested on: Xanthium strumarium; experiment: Greenhouse trial, post-emergence, visual herbicidal effect; conditions: alone
# Method: as §4, §2, §3
# [20] = tested on: Bidens pilosa; experiment: as above
# Method: as §4, §2, §3
# [21] = tested on: Pharbitis purpurea; experiment: as above; conditions: alone
# Method: as §4, §2, §3
# [22] = tested on: Ambrosia artemisiifolia; experiment: as above; conditions: alone
# Method: as §4, §2, §3
compound,measurement,setting,value
CSc1nnc(C(C)(C)C)c(=O)n1N [metribuzin],Activity [%] against Portulaca oleracea,[1],0%
same,Activity [%] against Sida spinosa,"[2]; Table 5-21, field, 50 g of a.i./ha",25%
O=C(O)CNCP(=O)(O)O [glyphosate],Activity [%] against Cassia obtusifolia,"[3]; Table 5-12, field, 200 g of a.i./ha",65%
COc1c(Cl)ccc(Cl)c1C(=O)O [dicamba],Activity [%] against Digitaria sanguinalis,"[4]; Greenhouse, dosage 12.5 g of a.i./ha",0%
same,Activity [%] against Echinochloa crus-galli,"[5]; Greenhouse, dosage 12.5 g of a.i./ha, Table 5-108",0%
same,Activity [%] against Echinochloa crus-galli,"[5]; Greenhouse, dosage 12.5 g of a.i./ha, Table 5-115",0%
same,Activity [%] against Echinochloa crus-galli,"[5]; Table 5-95, greenhouse, alone, 12.5 g of a.i./ha",0%
same,Activity [%] against Brachiaria platyphylla,"[6]; Greenhouse, dosage 12.5 g of a.i./ha, Table 5-105",0%
same,Activity [%] against Brachiaria platyphylla,"[6]; Table 5-64, greenhouse, alone, 25 g of a.i./ha",10%
same,Activity [%] against Brachiaria platyphylla,"[6]; Table 5-94, greenhouse, alone, 12.5 g of a.i./ha",0%
same,Activity [%] against Setaria viridis,"[7]; Table 5-65, greenhouse, 25 g of a.i./ha",0%
Cn1ncnc1NC(=O)c1ccc(C(F)(F)F)c(S(C)(=O)=O)c1Cl [A2-9],Activity [%] against Digitaria sanguinalis,"[4]; Greenhouse, dosage 2 g of a.i./ha",65%
same,Activity [%] against Echinochloa crus-galli,"[5]; Greenhouse, dosage 1 g of a.i./ha, Table 5-108",0%
same,Activity [%] against Brachiaria platyphylla,"[6]; Greenhouse, dosage 1 g of a.i./ha, Table 5-105",0%
Cc1ccc2c(c1)[C@H](Nc1nc(N)nc(C(C)F)n1)[C@@H](C)C2 (some centres unmarked) [indaziflam],Activity [%] against Cassia obtusifolia,"[3]; Table 5-24, field, 25 g of a.i./ha",65%
Cc1c(C(=O)c2cnn(C)c2O)ccc(S(C)(=O)=O)c1C1=NOCC1 [topramezone],Activity [%] against Setaria viridis,"[8]; Table 5-23, field, 9 g of a.i./ha",30%
Cn1nnnc1NC(=O)c1ccc(C(F)(F)F)cc1S(C)(=O)=O [A1-2],Activity [%] against Galium aparine,"[9]; Table 5-04, field, 25 g of a.i./ha",70%
same,Activity [%] against Phalaris minor,[10],0%
same,Activity [%] against Viola tricolor,"[11]; Table 5-02, greenhouse, 2 g of a.i./ha",60%
same,Activity [%] against Avena fatua,"[12]; Table 5-01, greenhouse, 2 g of a.i./ha",0%
Cc1c(C(=O)Nc2nnnn2C)ccc(S(C)(=O)=O)c1-n1cccn1 [A1-26],Activity [%] against Centaurea cyanis,"[13]; Table 5-38, greenhouse, 3 g of a.i./ha",40%
same,Activity [%] against Centaurea cyanis,"[13]; Table 5-40, greenhouse, 6 g of a.i./ha",60%
same,Activity [%] against Viola tricolor,"[11]; Table 5-42, greenhouse, 3 g of a.i./ha",50%
same,Activity [%] against Papaver rhoeas,"[14]; Table 5-39, greenhouse, 6 g of a.i./ha",50%
same,Activity [%] against Papaver rhoeas,"[14]; Table 5-41, greenhouse, 3 g of a.i./ha",30%
O=C(O)CNCP(=O)([O-])O.[K+] [glyphosate-potassium],Activity [%] against Sida spinosa,"[2]; Table 5-11, field, 200 g of a.i./ha",30%
Cn1nnnc1NC(=O)c1ccc(C(F)(F)F)nc1Cl [A4-7],Activity [%] against Stellaria media,[15]; Table 5-116,60%
same,Activity [%] against Echinochloa crus-galli,"[5]; Greenhouse, dosage 3 g of a.i./ha, Table 5-115",50%
CP(=O)(O)CCC(N)C(=O)O (centres unmarked) [glufosinate-ammonium],Activity [%] against Sida spinosa,"[2]; Table 5-10, field, 125 g of a.i./ha",50%
O=C(Nc1ccc(F)cc1F)c1cccnc1Oc1cccc(C(F)(F)F)c1 [diflufenican],Activity [%] against Lolium multiflorum,"[16]; Table 5-58, field, 120 g of a.i./ha",10%
COc1c(C(=O)Nc2nnnn2C)ccc(C(F)F)c1SC [A1-81],Activity [%] against Echinochloa crus-galli,"[5]; Table 5-95, greenhouse, alone, 1 g of a.i./ha",10%
same,Activity [%] against Brachiaria platyphylla,"[6]; Table 5-94, greenhouse, alone, 1 g of a.i./ha",10%
Cc1cc(Cl)ccc1OCC(=O)O [MCPA],Activity [%] against Lolium multiflorum,"[16]; Table 5-54, field, 280 g of a.i./ha",0%
same,Activity [%] against Galium aparine,"[9]; Table 5-61, field, 280 g of a.i./ha",0%
same,Activity [%] against Setaria viridis,"[8]; Table 5-26, field, 280 g of a.i./ha",0%
same,Activity [%] against Setaria viridis,"[8]; Table 5-80, field, 280 g of a.i./ha",0%
Cc1c(C(=O)Nc2nnnn2C)ccc(C(F)(F)F)c1S(C)(=O)=O [A1-7],Activity [%] against Viola tricolor,"[11]; Table 5-09, greenhouse, 3 g of a.i./ha",50%
same,Activity [%] against Papaver rhoeas,"[14]; Table 5-06, greenhouse, 3 g of a.i./ha",60%
same,Activity [%] against Avena fatua,"[12]; Table 5-05, greenhouse, 3 g of a.i./ha",0%
same,Activity [%] against Avena fatua,"[12]; Table 5-07, greenhouse, 3 g of a.i./ha",0%
same,Activity [%] against Polygonum convolvulus,"[17]; Table 5-08, greenhouse, 3 g of a.i./ha",10%
COCc1nc(C(F)(F)F)ccc1C(=O)Nc1nnnn1C [A4-2],Activity [%] against Stellaria media,[15]; Table 5-114,63%
same,Activity [%] against Brachiaria platyphylla,"[6]; Greenhouse, dosage 1 g of a.i./ha, Table 5-113",0%
COc1c(S(C)(=O)=O)ccc(C(=O)Nc2nnnn2C)c1Cl [A1-67],Activity [%] against Veronica hederifolia,"[18]; Table 5-79, field",75%
same,Activity [%] against Setaria viridis,"[8]; Table 5-80, field, 25 g of a.i./ha",65%
same,Activity [%] against Xanthium strumarium,"[19]; Table 5-77, greenhouse, 4 g of a.i./ha",0%
same,Activity [%] against Polygonum convolvulus,"[17]; Table 5-78, greenhouse, 4 g of a.i./ha",10%
COCCOCc1c(S(C)(=O)=O)ccc(C(=O)Nc2nnnn2C)c1Cl [A1-63],Activity [%] against Veronica hederifolia,"[18]; Table 5-74, field",68%
same,Activity [%] against Bidens pilosa,"[20]; Table 5-71, greenhouse, alone, 8 g of a.i./ha",50%
same,Activity [%] against Digitaria sanguinalis,"[4]; Table 5-68, greenhouse, alone, 8 g of a.i./ha",45%
same,Activity [%] against Pharbitis purpurea,"[21]; Table 5-72, greenhouse, 4 g of a.i./ha",35%
same,Activity [%] against Xanthium strumarium,"[19]; Table 5-73, greenhouse, 8 g of a.i./ha",80%
same,Activity [%] against Echinochloa crus-galli,"[5]; Table 5-69, greenhouse, alone, 8 g of a.i./ha",85%
same,Activity [%] against Brachiaria platyphylla,"[6]; Table 5-67, greenhouse, alone, 8 g of a.i./ha",10%
same,Activity [%] against Setaria viridis,"[7]; Table 5-70, greenhouse, 4 g of a.i./ha",50%
O=c1[nH]c2c(c(=O)n1C1CCCCC1)CCC2 [lenacil],Activity [%] against Bidens pilosa,"[20]; Greenhouse, dosage 4 g of a.i./ha",0%
same,Activity [%] against Bidens pilosa,"[20]; Table 5-28, greenhouse, alone, 4 g of a.i./ha",0%
same,Activity [%] against Bidens pilosa,"[20]; Table 5-33, greenhouse, alone, 4 g of a.i./ha",0%
same,Activity [%] against Bidens pilosa,"[20]; Table 5-71, greenhouse, alone, 400 g of a.i./ha",0%
same,Activity [%] against Digitaria sanguinalis,"[4]; Table 5-35, greenhouse, alone, 4 g of a.i./ha",0%
same,Activity [%] against Digitaria sanguinalis,"[4]; Table 5-68, greenhouse, alone, 400 g of a.i./ha",0%
same,Activity [%] against Pharbitis purpurea,"[21]; Table 5-30, greenhouse, 4 g of a.i./ha",0%
same,Activity [%] against Pharbitis purpurea,"[21]; Table 5-34, greenhouse, 4 g of a.i./ha",0%
same,Activity [%] against Pharbitis purpurea,"[21]; Table 5-72, greenhouse, 100 g of a.i./ha",0%
same,Activity [%] against Xanthium strumarium,"[19]; Table 5-56, greenhouse, 4 g of a.i./ha",0%
same,Activity [%] against Xanthium strumarium,"[19]; Table 5-73, greenhouse, 400 g of a.i./ha",0%
same,Activity [%] against Ambrosia artemisiifolia,"[22]; Table 5-29, greenhouse, 16 g of a.i./ha",0%
same,Activity [%] against Ambrosia artemisiifolia,"[22]; Table 5-32, greenhouse, 4 g of a.i./ha",0%
same,Activity [%] against Echinochloa crus-galli,"[5]; Table 5-69, greenhouse, alone, 400 g of a.i./ha",0%
same,Activity [%] against Brachiaria platyphylla,"[6]; Greenhouse, dosage 4 g of a.i./ha, Table 5-109",0%
same,Activity [%] against Brachiaria platyphylla,"[6]; Greenhouse, dosage 4 g of a.i./ha, Table 5-110",0%
same,Activity [%] against Brachiaria platyphylla,"[6]; Table 5-55, greenhouse, alone, 4 g of a.i./ha",0%
same,Activity [%] against Brachiaria platyphylla,"[6]; Table 5-57, greenhouse, alone, 4 g of a.i./ha",0%
same,Activity [%] against Brachiaria platyphylla,"[6]; Table 5-67, greenhouse, alone, 800 g of a.i./ha",0%
same,Activity [%] against Setaria viridis,"[7]; Table 5-27, greenhouse, 8 g of a.i./ha",0%
same,Activity [%] against Setaria viridis,"[7]; Table 5-31, greenhouse, 8 g of a.i./ha",0%
same,Activity [%] against Setaria viridis,"[7]; Table 5-70, greenhouse, 100 g of a.i./ha",0%
